Measured values: patent EP4786461A1, “PYRAZOLE CARBOXYLIC ACID DERIVATIVE AND USE THEREOF IN MEDICINE” (Haisco Pharmaceutical Group Co., Ltd., priority 2023, dated 2025)
pEC50: −log10 of the molar value. Counter-ions that a name gives are not always drawn. Like-named read-outs stand apart in the source and are kept apart here.

What was measured:
[1] = molecular target: T1, soluble guanylate cyclase (sGC) (Homo sapiens, UniProt Q02108+Q02153); assay: In vitro detection experiment for soluble guanylate cyclase (sGC) activity (TR-FRET cGMP); type: biochemical; settings: enzymatic agonism and/or activation of sGC; 1.5 nM sGC, 5 µM GTP, 100 µM DETA NONOate
T1 construct: purchased ICE S2304F-H07SH2
T1 sequence (Q02153 1-619): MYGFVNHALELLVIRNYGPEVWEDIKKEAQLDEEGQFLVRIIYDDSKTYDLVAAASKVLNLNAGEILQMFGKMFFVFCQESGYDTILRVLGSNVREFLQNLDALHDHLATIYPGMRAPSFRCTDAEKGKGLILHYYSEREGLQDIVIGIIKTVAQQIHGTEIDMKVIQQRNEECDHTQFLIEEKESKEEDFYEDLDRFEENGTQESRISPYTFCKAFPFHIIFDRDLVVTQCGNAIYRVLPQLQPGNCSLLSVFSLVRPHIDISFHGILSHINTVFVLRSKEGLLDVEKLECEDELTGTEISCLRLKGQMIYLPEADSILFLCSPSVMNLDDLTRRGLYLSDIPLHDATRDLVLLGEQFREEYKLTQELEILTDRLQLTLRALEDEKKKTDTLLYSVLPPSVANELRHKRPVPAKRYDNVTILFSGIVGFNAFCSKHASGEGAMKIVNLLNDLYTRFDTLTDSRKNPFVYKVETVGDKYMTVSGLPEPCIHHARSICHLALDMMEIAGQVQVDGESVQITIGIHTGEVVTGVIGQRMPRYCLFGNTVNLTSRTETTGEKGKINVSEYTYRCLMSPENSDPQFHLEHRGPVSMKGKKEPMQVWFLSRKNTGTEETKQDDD
T1 sequence (Q02108 1-690): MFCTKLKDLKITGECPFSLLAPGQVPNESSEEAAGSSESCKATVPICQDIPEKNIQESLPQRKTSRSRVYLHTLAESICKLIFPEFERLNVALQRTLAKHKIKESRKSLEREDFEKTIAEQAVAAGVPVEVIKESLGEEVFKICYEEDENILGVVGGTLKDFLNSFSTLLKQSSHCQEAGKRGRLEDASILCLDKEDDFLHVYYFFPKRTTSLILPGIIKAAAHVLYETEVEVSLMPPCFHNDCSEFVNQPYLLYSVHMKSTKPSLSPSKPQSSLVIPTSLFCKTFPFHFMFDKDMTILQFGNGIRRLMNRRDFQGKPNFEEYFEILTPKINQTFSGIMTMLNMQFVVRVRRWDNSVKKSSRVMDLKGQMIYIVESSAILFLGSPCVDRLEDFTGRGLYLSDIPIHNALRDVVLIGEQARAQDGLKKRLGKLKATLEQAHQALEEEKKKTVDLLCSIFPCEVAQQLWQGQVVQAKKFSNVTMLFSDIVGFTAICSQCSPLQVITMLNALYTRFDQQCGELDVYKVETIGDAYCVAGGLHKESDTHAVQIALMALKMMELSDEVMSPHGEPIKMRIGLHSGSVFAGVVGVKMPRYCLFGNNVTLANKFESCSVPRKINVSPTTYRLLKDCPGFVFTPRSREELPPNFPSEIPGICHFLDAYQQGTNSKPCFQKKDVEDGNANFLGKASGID
Description: First, 100 nL of the compounds at different concentrations were transferred to a 384-well reaction plate (Greiner, Cat. No. 784075) using Echo 655 (LABCYTE, Cat # 655), with the final DMSO concentration of 1% in the reaction mixture; 2 µL of sGC (ICE, Cat. No. S2304F-H07SH2) was added to the 384-well reaction plate, and the mixture was centrifuged at 1000 rpm for 1 min; and then 1 µL of DETA NONOate was added, and the mixture was incubated at 37°C for 10 min. After the incubation was completed, 2 µL of GTP was added, and the mixture was centrifuged at 1000 rpm for 1 min and reacted at 37°C for 60 min. In the reaction system, the final concentrations of sGC, GTP, and DETA NONOate were 1.5 nM, 5 µM, and 100 µM, respectively. After the reaction was completed, 5 µL of the test mixture (PerkinElmer, Cat. No. 62GM2PEG) was added, and the mixture was incubated at room temperature for 60 min. The TR-FRET signal (Ratio: 665/620 nm) was read using a microplate reader (BMG, Cat. No. PHERAstar FSX). A nonlinear regression curve was fitted using GraphPad Prism software, and EC50 values were calculated. Compound A (Example 1 in WO 2010065275) was used as a positive reference compound. The activation rate was calculated according to Equation 2-1, where Low control represents the TR-FRET signal value of 1 µM compound A, and High control represents the TR-FRET signal value in the DMSO well. Stimulation% = (aveHighcontrol−cpdwell)/(ave High control−ave Low; control)*100% [formula] Table 2-1 Results of enzymatic agonism and/or activation of test compounds on soluble guanylate cyclase (sGC).

[2] = Mouse pharmacokinetic assay; type: in vivo, ICR mice; settings: mice, i.g., 10 mg/kg, plasma
Description: Experimental objective: In this experiment, a single dose of test compounds was administered to ICR mice intravenously and intragastrically, the concentrations of the test compounds in the plasma of mice were measured, and the pharmacokinetic characteristics and bioavailability of the test compounds in mice were evaluated.
Experimental animals: male ICR mice, 20-35 g, purchased from Chengdu Dossy Experimental Animals Co., Ltd.
Experimental method: On the day of the experiment, the ICR mice were randomly grouped according to their body weight. The animals were fasted but with water available overnight before the administration, and fed 4 h after the administration.
Sampling: Blood was taken from the orbits at specified time points, and placed in an EDTAK2 centrifuge tube. The tube was centrifuged at 5000 rpm for 10 min, and the plasma was collected.
Time points for plasma collection in G1 group: 0, 5 min, 15 min, 30 min, 1 h, 2 h, 4 h, 7 h, and 24 h.
Time points for plasma collection in G2 group: 0, 5 min, 15 min, 30 min, 1 h, 2 h, 4 h, 7 h, and 24 h.
Before analysis and detection, all the samples were stored at -60°C or lower. The samples were analyzed quantitatively by LC-MS/MS. Table 3-1 PK data of test compound (i.e., drug) in mice

[3] = Stability test in rat liver microsomes; type: in vitro ADME
Description: At 37°C, 1 µM of the test compound was incubated with rat liver microsomes (0.5 mg/mL) supplemented with an NADPH regeneration system for 5, 10, 20, 30 and 60 minutes, and then the LC-MS/MS method was used to detect the concentration of the test compound in the resulting sample. The half-life (T1/2) and intrinsic clearance (CLint(mic)) of the compound in rat liver microsome solution were obtained by calculating the remaining percentage of the compound at the corresponding time points.

[4] = Rat pharmacokinetic assay; type: in vivo, SD rats; settings: rats, i.g., 10 mg/kg, plasma
Description: Experimental animals: male SD rats, 180-200 g, purchased from Chengdu Dossy Experimental Animals Co., Ltd.
Experimental design: On the day of the experiment, the SD rats were randomly grouped according to their body weight. The animals were fasted but with water available overnight before the administration, and fed 4 h after the administration.
Blood was taken from the orbits at specified time points, and placed in an EDTAK2 centrifuge tube. The tube was centrifuged at 5000 rpm for 10 min, and the plasma was collected.
Blood sampling time points for the intravenous administration group: 0, 5 min, 15 min, 30 min, 1 h, 2 h, 4 h, 7 h and 24 h; blood sampling time points for the intragastric administration group: 0, 5 min, 15 min, 30 min, 1 h, 2 h, 4 h, 7 h and 24 h. Before analysis and detection, all the samples were stored at -60°C or lower. The samples were analyzed quantitatively by LC-MS/MS. Table 4-1 PK data of test compound (i.e., drug) in rats

[5] = rat liver microsomes 0.5 mg/mL, 1 µM compound, NADPH regeneration system, 37°C
[6] = rat, microsomes, rat liver microsomes 0.5 mg/mL, 1 µM compound, NADPH regeneration system, 37°C
[7] = rat, microsomes, rat liver microsomes 0.5 mg/mL, 1 µM compound, NADPH regeneration system, 37°C, read-out: CLint(mic)
[8] = rat liver microsomes 0.5 mg/mL, 1 µM compound, NADPH regeneration system, 37°C, 1 µM

| SMILES | pEC50 [1] | AUC ([4]; rat, po, read-out: AUC) [ng·h/mL] | AUC ([2]; mouse, po, read-out: AUC) [ng·h/mL] | also measured |
| --- | --- | --- | --- | --- |
| CC(C)CN1CCN(c2ccc(-c3c(F)cc(Cl)cc3N3CCCC(n4ncc(C(=O)O)c4C(F)F)C3)cc2)CC1 (racemic) [Compound 1] | > 7.70 |  |  |  |
| CC(C)CN1CCN(c2ccc(-c3c(F)cc(Cl)cc3N3CCCC(n4ncc(C(=O)O)c4C(F)F)C3)cc2)CC1 (single isomer, unassigned) [Compound 1-1] |  |  |  | AUC ([2]; mouse, in vivo, po, read-out: AUC): > 10000 ng·h/mL; half-life at 1 µM [3, 5]: 0.727 h; microsomal CLint at 1 µM ([3]; rat, microsomes): 31.8 µL/min/mg; AUC ([4]; rat, in vivo, po, read-out: AUC): > 10000 ng·h/mL |
| CC(C)CN1CCN2c3ccc(-c4ccc(Cl)cc4N4CCC[C@@H](n5ncc(C(=O)O)c5C(F)F)C4)cc3CCC2C1 (single isomer, unassigned) [Compound 8-1] | > 7.70 | > 10000 |  | AUC [2]: > 10000 ng·h/mL; half-life at 1 µM [3, 6]: 2.53 h; microsomal CLint at 1 µM [3, 7]: 9.13 µL/min/mg |
| CC(C)CN1CCN2c3ccc(-c4ccc(Cl)cc4N4CCC[C@H](n5ncc(C(=O)O)c5C(F)F)C4)cc3CCC2C1 (single isomer, unassigned) [Compound 8-2] | > 7.70 | > 10000 | > 10000 | half-life at 1 µM [3, 6]: 1.63 h; microsomal CLint at 1 µM [3, 7]: 14.1 µL/min/mg |
| CC(C)CN1CCN2c3ccc(-c4ccc(Cl)cc4N4CCC[C@@H](n5ncc(C(=O)O)c5C(F)F)C4)cc3CCC2C1 (single isomer, unassigned) [Compound 9-1] | > 7.70 |  | > 10000 | CLint(mic) [3, 8]: 11.0 µL/min/mg; T1/2 [3, 8]: 2.1 h; AUC [4]: > 10000 ng·h/mL |
| CC(C)CN1CCN(c2ccc(-c3ccc(C(F)F)cc3N3CCC[C@@H](n4ncc(C(=O)O)c4C(F)F)C3)cc2)CC1 [Compound 3-1] | > 7.70 | > 10000 | > 10000 |  |
| CC(C)CN1CCN(c2ccc(-c3ccc(C(F)F)cc3N3CCC[C@H](n4ncc(C(=O)O)c4C(F)F)C3)cc2)CC1 [Compound 3-2] | > 7.70 |  |  |  |
| CC(C)CN1CCN2c3cc(F)c(-c4ccc(Cl)cc4N4CCC[C@@H](n5ncc(C(=O)O)c5C(F)F)C4)cc3CC[C@H]2C1 [Compound 5-1] | > 7.70 | > 10000 | > 10000 | half-life at 1 µM [3, 6]: 2.33 h; microsomal CLint at 1 µM [3, 7]: 9.87 µL/min/mg |
| CC(C)CN1CCN2c3cc(F)c(-c4ccc(Cl)cc4N4CCC[C@H](n5ncc(C(=O)O)c5C(F)F)C4)cc3CC[C@H]2C1 [Compound 5-2] | > 7.70 |  | > 10000 |  |
| CC(C)CN1CCN2c3cc(F)c(-c4ccc(Cl)cc4N4CCC[C@@H](n5ncc(C(=O)O)c5C(F)F)C4)cc3CC[C@@H]2C1 [Compound 6-1] | > 7.70 | > 10000 | > 10000 | half-life at 1 µM [3, 6]: 1.87 h; microsomal CLint at 1 µM [3, 7]: 12.4 µL/min/mg |
| CC(C)CN1CCN2c3cc(F)c(-c4ccc(Cl)cc4N4CCC[C@H](n5ncc(C(=O)O)c5C(F)F)C4)cc3CC[C@@H]2C1 [Compound 6-2] | > 7.70 | > 10000 | > 10000 | half-life at 1 µM [3, 6]: 1.95 h; microsomal CLint at 1 µM [3, 7]: 11.8 µL/min/mg |
| CC(C)CN1CCN2c3ccc(-c4ccc(Cl)cc4N4CCCC(n5ncc(C(=O)O)c5C(F)F)C4)cc3CCC2C1 (stereo not drawn) [Compound 8] | > 7.70 |  |  |  |
| CC(C)CN1CC2CCC(C1)N2c1ccc(-c2ccc(Cl)cc2N2CCCC(n3ncc(C(=O)O)c3C(F)F)C2)cc1 (stereo not drawn) [Compound 10] | > 7.70 |  |  |  |
| CC(C)CN1CCN(c2ccc(-c3ccc(Cl)cc3N3CCC[C@@H](n4ncc(C(=O)O)c4C(F)F)C3)cc2)CC1 [Control compound 1, reference compound] |  |  |  | half-life at 1 µM [3, 5]: 0.183 h; microsomal CLint at 1 µM ([3]; rat liver microsomes 0.5 mg/mL, 1 µM compound, NADPH regeneration system, 37°C, read-out: CLint(mic)): 126 µL/min/mg |
| CC(C)CN1CCN2c3cc(F)c(-c4ccc(Cl)cc4N4CCCC(n5ncc(C(=O)O)c5C(F)F)C4)cc3CC[C@H]2C1 (stereo partly drawn) [Trifluoroacetate salt of Compound 5] | > 7.70 |  |  |  |
| CC(C)CN1CC=C(c2ccc(-c3ccc(Cl)cc3N3CCCC(n4ncc(C(=O)O)c4C(F)F)C3)cc2)CC1 (stereo not drawn) [Trifluoroacetate salt of Compound 11] | > 7.70 |  |  |  |
| CC(C)CN1CCC(c2ccc(-c3ccc(Cl)cc3N3CCCC(n4ncc(C(=O)O)c4C(F)F)C3)cc2)CC1 (stereo not drawn) [Trifluoroacetate salt of Compound 12] | > 7.70 |  |  |  |
